Each structure is given as a SMILES string. Where a name gives a salt, the structure may show the parent alone. Some results are limits rather than exact numbers.

Usually IC50 stands for the concentration that gives 50% inhibition.

The first assay deals with T1, hBTK (full-length BTK, 6HIS-tag cleaved) (Homo sapiens (Human), UniProt Q06187). The experiment in a line: BTK enzymatic activity, IMAP-FP assay (Assay Method B). The class given is biochemical.
T1 sequence (Q06187 whole entry): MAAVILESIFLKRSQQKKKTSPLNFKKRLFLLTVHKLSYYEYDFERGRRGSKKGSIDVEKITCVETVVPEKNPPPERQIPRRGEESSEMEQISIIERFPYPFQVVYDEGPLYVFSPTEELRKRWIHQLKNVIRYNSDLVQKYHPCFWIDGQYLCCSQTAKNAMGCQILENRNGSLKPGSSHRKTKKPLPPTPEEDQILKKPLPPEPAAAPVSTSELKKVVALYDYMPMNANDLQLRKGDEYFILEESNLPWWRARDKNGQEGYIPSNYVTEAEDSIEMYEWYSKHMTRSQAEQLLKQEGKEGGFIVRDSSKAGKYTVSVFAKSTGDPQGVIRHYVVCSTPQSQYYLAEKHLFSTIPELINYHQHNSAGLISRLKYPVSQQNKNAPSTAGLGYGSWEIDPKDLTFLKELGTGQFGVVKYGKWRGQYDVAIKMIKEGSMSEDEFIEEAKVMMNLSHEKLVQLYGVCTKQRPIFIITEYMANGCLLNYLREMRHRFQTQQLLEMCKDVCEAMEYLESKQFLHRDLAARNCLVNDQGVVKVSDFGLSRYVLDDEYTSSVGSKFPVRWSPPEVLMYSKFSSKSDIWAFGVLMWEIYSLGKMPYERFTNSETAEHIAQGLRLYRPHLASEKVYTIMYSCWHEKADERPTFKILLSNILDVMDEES
Conditions: not given
The procedure: BTK enzymatic activity was determined in an IMAP-FP assay (Immobilized Metal ion Affinity-based fluorescence Polarization; Molecular Devices). […] Phosphorylation reactions were allowed to proceed for 120 minutes and were immediately quenched by the addition of 40 μL IMAP detection beads resuspended in IMAP progressive binding buffer (beads were diluted 1:600 in 75% and 25% progressive binding buffer A and B, respectively; Molecular Devices). Plates were read on Packard microplate reader after 60 minutes binding equilibration using Fluorescence Polarization protocol.
For the compound `CCc1ccnc(NC(=O)c2ccc(-c3cn([C@@H]4CCCN(C(=O)C5(C)COC5)C4)c4ncnc(N)c34)cc2)c1` [Example 391, 4-(4-amino-7-{(3R)-1-[(3-methyloxetan-3-yl)carbonyl]piperidin-3-yl}-7H-pyrrolo[2,3-d]pyrimidin-5-yl)-N-(4-ethylpyridin-2-yl)benzamide], the IC50 was 0.01 to 0.1 µM.

Still in this assay, the particulars now being: IMAP-FP, 1.05 nM hBTK, 5 μM ATP; class 100-1000 is given as ≧100 nM-<1 μM; read-out: IC50 Btk activity values - Assay Method B.
Take `C[C@@H]1[C@H](c2nc(-c3ccc(C(=O)Nc4cc(C(F)(F)F)ccn4)cc3)c3c(N)nccn23)CCCN1C(=O)C1(C)COC1` [Example 379, 4-(8-amino-3-{(2R,3R)-2-methyl-1-[(3-methyloxetan-3-yl)carbonyl]piperidin-3-yl}imidazo[1,5-a]pyrazin-1-yl)-N-[4-(trifluoromethyl)pyridin-2-yl]benzamide]: the IC50 is below 0.01 µM.
The same measure, in the same setting: for `CCOc1ccnc(NC(=O)c2ccc(-c3nc([C@@H]4CC[C@H](C)N(C(=O)C5(C)COC5)C4)n4ccnc(N)c34)cc2)c1` [Example 404, 4-(8-amino-3-{(3R,6S)-6-methyl-1-[(3-methyloxetan-3-yl)carbonyl]piperidin-3-yl}imidazo[1,5-a]pyrazin-1-yl)-N-(4-ethoxypyridin-2-yl)benzamide] the value was below 0.01 µM; for `Cn1cc(CN2CCO[C@@H](c3nc(-c4ccc(C(=O)Nc5cc(C(F)(F)F)ccn5)cc4)c4c(N)nccn34)C2)cn1` [Example 495, 4-(8-amino-3-{(2R)-4-[(1-methyl-1H-pyrazol-4-yl)methyl]morpholin-2-yl}imidazo[1,5-a]pyrazin-1-yl)-N-[4-(trifluoromethyl)pyridin-2-yl]benzamide], 0.01 to 0.1 µM; for `CCN1C[C@@H](c2nc(-c3ccc(C(=O)Nc4cc(C(F)(F)F)ccn4)cc3)c3c(N)nccn23)CC[C@@H]1C(F)(F)F` [Example 406, 4-{8-amino-3-[(3S,6R)-1-ethyl-6-(trifluoromethyl)piperidin-3-yl]imidazo[1,5-a]pyrazin-1-yl}-N-[4-(trifluoromethyl)pyridin-2-yl]benzamide], 0.01 to 0.1 µM.
Turning to `C[C@H]1C[C@@H](c2nc(-c3ccc(C(=O)Nc4cc(C(F)(F)F)ccn4)cc3)c3c(N)nccn23)CN(C(=O)C2(C)COC2)C1` [Example 374, 4-(8-amino-3-{(3R,5S)-5-methyl-1-[(3-methyloxetan-3-yl)carbonyl]piperidin-3-yl}imidazo[1,5-a]pyrazin-1-yl)-N-[4-(trifluoromethyl)pyridin-2-yl]benzamide], the IC50 was below 0.01 µM.
`CC1(C(=O)N2CCC[C@@H](n3cc(-c4ccc(C(=O)Nc5cc(C(F)(F)F)ccn5)cc4)c4c(N)ncnc43)C2)COC1` [Example 389, 4-(4-amino-7-{(3R)-1-[(3-methyloxetan-3-yl)carbonyl]piperidin-3-yl}-7H-pyrrolo[2,3-d]pyrimidin-5-yl)-N-[4-(trifluoromethyl)pyridin-2-yl]benzamide]: the IC50 was below 0.01 µM.
On to `COc1cc(C(=O)Nc2cc(C(F)(F)F)ccn2)ccc1-c1nc([C@@H]2CC[C@H](C)N(C(=O)C3(C)COC3)C2)n2ccnc(N)c12` [Example 401, 4-(8-amino-3-{(3R,6S)-6-methyl-1-[(3-methyloxetan-3-yl)carbonyl]piperidin-3-yl}imidazo[1,5-a]pyrazin-1-yl)-3-methoxy-N-[4-(trifluoromethyl)pyridin-2-yl]benzamide], for which the IC50 was below 0.01 µM.
Same read-out and setting: the result for `Cn1cc(CN2CCN[C@@H](c3nc(-c4ccc(C(=O)Nc5cc(C(F)(F)F)ccn5)cc4)c4c(N)nccn34)C2)cn1` [Example 566, 4-(8-amino-3-{(2R)-4-[(1-methyl-1H-pyrazol-4-yl)methyl]piperazin-2-yl}imidazo[1,5-a]pyrazin-1-yl)-N-[4-(trifluoromethyl)pyridin-2-yl]benzamide] reads 0.1 to 1 µM.
With `Nc1ncc(F)n2c([C@@H]3CCCN(C(=O)C4CC4)C3)nc(-c3ccc(C(=O)Nc4cc(C(F)(F)F)ccn4)cc3)c12` [Example 463, 4-{8-amino-3-[(3R)-1-(cyclopropylcarbonyl)piperidin-3-yl]-5-fluoroimidazo[1,5-a]pyrazin-1-yl}-N-[4-(trifluoromethyl)pyridin-2-yl]benzamide], the IC50 was below 0.01 µM.
On the same count and under the same terms, for `C[C@H]1CCN(C(=O)C2(C)COC2)C[C@@H]1c1nc(-c2ccc(C(=O)Nc3cc(C(F)(F)F)ccn3)cc2)c2c(N)nccn12` [Example 378, 4-(8-amino-3-{(3R,4S)-4-methyl-1-[(3-methyloxetan-3-yl)carbonyl]piperidin-3-yl}imidazo[1,5-a]pyrazin-1-yl)-N-[4-(trifluoromethyl)pyridin-2-yl]benzamide] the value was 0.01 to 0.1 µM; for `Cc1cc(C(=O)Nc2cc(C(F)(F)F)ccn2)ccc1-c1nc([C@@H]2CCCN(C(=O)C3(C)COC3)C2)n2ccnc(N)c12` [Example 479, 4-(8-amino-3-{(3R)-1-[(3-methyloxetan-3-yl)carbonyl]piperidin-3-yl}imidazo[1,5-a]pyrazin-1-yl)-3-methyl-N-[4-(trifluoromethyl)pyridin-2-yl]benzamide], 0.01 to 0.1 µM; for `CCN1CCO[C@@H](c2nc(-c3ccc(C(=O)Nc4cc(C(F)(F)F)ccn4)cc3)c3c(N)nccn23)C1` [Example 496, 4-{8-amino-3-[(2R)-4-ethylmorpholin-2-yl]imidazo[1,5-a]pyrazin-1-yl}-N-[4-(trifluoromethyl)pyridin-2-yl]benzamide], 0.01 to 0.1 µM.
For `CC1(C(=O)N2C[C@H](c3nc(-c4ccc(C(=O)Nc5cc(C(F)(F)F)ccn5)cc4)c4c(N)nccn34)CC(F)(F)C2)COC1` (stereo in doubt) [Example 376, 4-(8-amino-3-{5,5-difluoro-1-[(3-methyloxetan-3-yl)carbonyl]piperidin-3-yl}imidazo[1,5-a]pyrazin-1-yl)-N-[4-(trifluoromethyl)pyridin-2-yl]benzamide], the IC50 was below 0.01 µM.
On the same count and under the same terms, the result for `CC1(C(=O)N2CCC[C@@H](n3cc(-c4ccc(C(=O)Nc5cc(C#N)ccn5)cc4)c4c(N)ncnc43)C2)COC1` [Example 390, 4-(4-amino-7-{(3R)-1-[(3-methyloxetan-3-yl)carbonyl]piperidin-3-yl}-7H-pyrrolo[2,3-d]pyrimidin-5-yl)-N-(4-cyanopyridin-2-yl)benzamide] reads 0.01 to 0.1 µM; that for `C[C@@H]1CCN(C(=O)C2(C)COC2)C[C@@H]1c1nc(-c2ccc(C(=O)Nc3cc(C(F)(F)F)ccn3)cc2)c2c(N)nccn12` [Example 377, 4-(8-amino-3-{(3R,4R)-4-methyl-1-[(3-methyloxetan-3-yl)carbonyl]piperidin-3-yl}imidazo[1,5-a]pyrazin-1-yl)-N-[4-(trifluoromethyl)pyridin-2-yl]benzamide], 0.1 to 1 µM.

In another assay the target is T1, hBTK (full-length BTK, 6HIS-tag cleaved). In words: BTK enzymatic activity, LANCE TR-FRET assay (Assay Method C). Format: biochemical. As to conditions: LANCE TR-FRET, 50 pM hBTK, 25 μM ATP; class 100-1000 is given as ≧100 nM-<1 μM; read-out: IC50 Btk activity values - Assay Method C. A general note: TR-FRET usually uses a lanthanide donor and a delayed reading to cut background.
Take `CO[C@@H](C)c1cnc(N)c2c(-c3ccc(C(=O)Nc4cc(C(F)(F)F)ccn4)cc3)nc([C@@H]3CCCN(C(=O)C4(C)COC4)C3)n12` [Example 468, 4-(8-amino-5-[(1S)-1-methoxyethyl]-3-{(3R)-1-[(3-methyloxetan-3-yl)carbonyl]piperidin-3-yl}imidazo[1,5-a]pyrazin-1-yl)-N-[4-(trifluoromethyl)pyridin-2-yl]benzamide]: the IC50 was below 0.01 µM.
In the case of `Cc1cnc(N)c2c(-c3ccc(C(=O)Nc4cc(C(F)(F)F)ccn4)cc3)nc([C@H]3CN(Cc4cnn(C)c4)CCO3)n12` [Example 509, 4-(8-amino-5-methyl-3-{(2R)-4-[(1-methyl-1H-pyrazol-4-yl)methyl]morpholin-2-yl}imidazo[1,5-a]pyrazin-1-yl)-N-[4-(trifluoromethyl)pyridin-2-yl]benzamide], the IC50 was below 0.01 µM.
On the same count and under the same terms, for `CC(C)COc1ccnc(NC(=O)c2ccc(-c3nc([C@@H]4CC[C@H](C)N(C(=O)C5(C)COC5)C4)n4ccnc(N)c34)cc2)c1` [Example 417, 4-(8-amino-3-{(3R,6S)-6-methyl-1-[(3-methyloxetan-3-yl)carbonyl]piperidin-3-yl}imidazo[1,5-a]pyrazin-1-yl)-N-[4-(2-methylpropoxy)pyridin-2-yl]benzamide] the value was below 0.01 µM.
On the same count and under the same terms, the result for `Nc1ncc(Cl)n2c([C@H]3CN(CCO)CCO3)nc(-c3ccc(C(=O)Nc4cc(C(F)(F)F)ccn4)cc3)c12` [Example 535, 4-{8-amino-5-chloro-3-[(2R)-4-(2-hydroxyethyl)morpholin-2-yl]imidazo[1,5-a]pyrazin-1-yl}-N-[4-(trifluoromethyl)pyridin-2-yl]benzamide, TFA salt] reads below 0.01 µM; that for `CC1(C(=O)N2CCC[C@@H](c3nc(-c4ccc(C(=O)Nc5cc(C6CCC6)ccn5)cc4)c4c(N)nccn34)C2)COC1` [Example 354, 4-(8-amino-3-{(3R)-1-[(3-methyloxetan-3-yl)carbonyl]piperidin-3-yl}imidazo[1,5-a]pyrazin-1-yl)-N-(4-cyclobutylpyridin-2-yl)benzamide], below 0.01 µM.
Regarding `CC1(C(=O)N2CCC[C@@H](c3nc(-c4ccc(C(=O)Nc5cc(C(F)(F)F)ccn5)cc4)c4c(N)ncc(C5(O)COC5)n34)C2)COC1` [Example 469, 4-[8-amino-5-(3-hydroxyoxetan-3-yl)-3-{(3R)-1-[(3-methyloxetan-3-yl)carbonyl]piperidin-3-yl}imidazo[1,5-a]pyrazin-1-yl]-N-[4-(trifluoromethyl)pyridin-2-yl]benzamide], the IC50 was in the range of 0.01 to 0.1 µM.
Still for that read-out and setting: the result for `Nc1nccn2c([C@H]3CN(CC4CC4)CCO3)nc(-c3ccc(C(=O)Nc4cc(C(F)(F)F)ccn4)cc3)c12` [Example 508, 4-{8-amino-3-[(2R)-4-(cyclopropylmethyl)morpholin-2-yl]imidazo[1,5-a]pyrazin-1-yl}-N-[4-(trifluoromethyl)pyridin-2-yl]benzamide] reads below 0.01 µM.
